In publication PMC9030166, “Natural Phaeosphaeride A Derivatives Overcome Drug Resistance of Tumor Cells and Modulate Signaling Pathways” (Pharmaceuticals, 2022):
Several values for one entry are separate records, joined by “and”; a condition that tells them apart may be missing. Identical values can stand only once.

Experiments:
[1] = tested on: CMT № 2 (Malignant Schwannoma); assay: MTT cytotoxicity, primary culture of soft tissue sarcoma CMT № 2; type: cell-based; conditions: Homo sapiens, 48 h
Excerpt: It is believed that such cultures have a molecular profile that corresponds more with cells from the human body, in comparison with that of stable cultures of tumor cells (Table 3).
Cell cultures used in the work: adhesive cultures HBL-100 cells (cells of a normal mammary gland epithelium, immortalized by the SV40 virus and acquired tumorigenicity); MCF-7 breast cancer cells; PC-3 prostate adenocarcinoma cells; HCT-116 colorectal cancer cells; non-small cell lung cancer cells A549; human embryonic kidney cells HEK293; suspension cultures (NCI-H929 and RPMI8226 multiple myeloma cells), K562 chronic myeloid leukemia cells; THP-1 acute monocytic leukemia cells; and Jurkat acute T-cell leukemia cells. We also used several primary cultures of soft tissue sarcomas at 3–4passeges, kindly provided by T.I. Fetisov (The Ethics Committee of N.N. Blokhin NMRCO, protocol code 18-28-09095 and date of approval 28 September 2018).
(§1) Modifications of cell lines: K562/i-S9 is a clone obtained after transfection of K562 cells with the ABCB1 (MDR1) gene-encoding P-glycoprotein [36]. Cells HBL-100/Dox and K562/i-S9_Dox are cells obtained by long-term selection with increasing concentrations of doxorubicin (Sigma-Aldrich, St. Louis, MO, USA) from HBL-100 and K562/i-S9 cells, respectively. MCF-7, A594 cells, and primary cultures of soft tissue sarcomas were cultured in DMEM medium (PanEko, Russia), PC-3 and HCT-116 cells and all suspension cultures in RPMI1640 medium (PanEko, Russia) supplemented with 10% fetal bovine serum (GE Healthcare LifeSciences, USA), and gentamicin at a concentration of 40 μg/mL at 37 °C and 5% CO2.
Cells MCF-7, PC-3, A549, and HCT-116, and primary cultures of STSwere seeded in 96-well plates, 6 × 10^3 cells per well in 90 μL of culture medium. Suspension cultures were seeded at a concentration of 25 × 10^3 cells per well in 135 μL of medium. The test substances were dissolved in DMSO (Applichem, Council Bluffs, IA, USA) until a concentration of 1 × 10^−^2 M was obtained; for the subsequent dilution of the substances, a serum-free culture medium was used. The next day, for adhesive cultures, and on the same day, for suspension cultures, substances were added to the plates in a volume of 10 μL (adhesive cultures) and 15 μL (suspension cultures) per well at various concentrations; each concentration was added in 3–4 repetitions. The cells were cultured in the presence of substances for 48 h. […] The optical density was determined using a Multiskan FC spectrophotometer (Thermo Scientific, Waltham, MA, USA) at a wavelength of 540 nm.
Based on the results of the experiments, a schedule was plotted of the dependence of the percentage of surviving cells (from control) on the concentration of the compound, and the sought concentration IC50 was calculated. […]

K562/i-S9_Dox = assay: MTT cytotoxicity, resistant K562/i-S9_Dox cells (P-gp overexpression); type: cell-based, human; conditions: Homo sapiens, K562; resistant version, doxorubicin selected, MTT, 48 h
Excerpt: At the next stage, the cytotoxic activity of compounds 1, 2, and 9 (Scheme 2) was investigated on several pairs of cell lines that differ in the expression of P-gp and the method by which they were obtained. K562/i-S9 cells are the result of the ABCB1 transfection into K562 cells, which increases P-gp expression, but should not seriously affect other signaling pathways that could lead to drug resistance. K562/i-S9_Dox cells were obtained from K562/i-S9 by selection with low concentrations of doxorubicin to increase P-gp expression. Subline HBL-100/Dox is a derivative of HBL-100 cells, obtained by long-term selection with increasing concentrations of doxorubicin, which led not only to an increase in P-gp expression, but also to a change in the signaling pathways in this subline. Cells of the K562/i-S9_Dox subline express the highest level of P-gp: 94.7% ± 2.3 (p < 0.0001 relative to K562, and p = 0.04 relative to K562/i-S9). In cells of the K562/i-S9 line, the expression of P-gp is 80% ± 8.2 (p < 0.0001 relative to K562). At 0.7% ± 0.5, P-gp is practically not expressed in K562 cells (Figure 1).
as §1
Cells MCF-7, PC-3, A549, and HCT-116, and primary cultures of STSwere seeded in 96-well plates, 6 × 10^3 cells per well in 90 μL of culture medium. Suspension cultures were seeded at a concentration of 25 × 10^3 cells per well in 135 μL of medium. The test substances were dissolved in DMSO (Applichem, Council Bluffs, IA, USA) until a concentration of 1 × 10^−^2 M was obtained; for the subsequent dilution of the substances, a serum-free culture medium was used. The next day, for adhesive cultures, and on the same day, for suspension cultures, substances were added to the plates in a volume of 10 μL (adhesive cultures) and 15 μL (suspension cultures) per well at various concentrations; each concentration was added in 3–4 repetitions. The cells were cultured in the presence of substances for 48 h. Then, MTT reagent (PanEko, Moscow, Russia) was added to the wells at a concentration of 5 mg/mL in a volume of 20 μL per well. After 1.5–2 h, the medium with the reagent was removed, and the precipitate of the crystals of formazan was dissolved in 60 μL of DMSO. The optical density was determined using a Multiskan FC spectrophotometer (Thermo Scientific, Waltham, MA, USA) at a wavelength of 540 nm.
Based on the results of the experiments, a schedule was plotted of the dependence of the percentage of surviving cells (from control) on the concentration of the compound, and the sought concentration IC50 was calculated. The experiments were carried out in 3–4 times.

P-glycoprotein = biological target: T1, P-glycoprotein (Homo sapiens, UniProt P08183); assay: Release of rhodamine 123 (Rd123) from K562/i-S9_Dox cells, flow cytometry; type: cell-based; conditions: K562/i-S9_Dox cells after Rd123 release, compound 20 μM, 35 min; release without compound 17.1 ± 6.6
T1 construct: expressed in transfected cells; host or cells: K562/i-S9_Dox (K562 transfected with ABCB1/MDR1, then selected with increasing doxorubicin)
T1 sequence (P08183 whole entry): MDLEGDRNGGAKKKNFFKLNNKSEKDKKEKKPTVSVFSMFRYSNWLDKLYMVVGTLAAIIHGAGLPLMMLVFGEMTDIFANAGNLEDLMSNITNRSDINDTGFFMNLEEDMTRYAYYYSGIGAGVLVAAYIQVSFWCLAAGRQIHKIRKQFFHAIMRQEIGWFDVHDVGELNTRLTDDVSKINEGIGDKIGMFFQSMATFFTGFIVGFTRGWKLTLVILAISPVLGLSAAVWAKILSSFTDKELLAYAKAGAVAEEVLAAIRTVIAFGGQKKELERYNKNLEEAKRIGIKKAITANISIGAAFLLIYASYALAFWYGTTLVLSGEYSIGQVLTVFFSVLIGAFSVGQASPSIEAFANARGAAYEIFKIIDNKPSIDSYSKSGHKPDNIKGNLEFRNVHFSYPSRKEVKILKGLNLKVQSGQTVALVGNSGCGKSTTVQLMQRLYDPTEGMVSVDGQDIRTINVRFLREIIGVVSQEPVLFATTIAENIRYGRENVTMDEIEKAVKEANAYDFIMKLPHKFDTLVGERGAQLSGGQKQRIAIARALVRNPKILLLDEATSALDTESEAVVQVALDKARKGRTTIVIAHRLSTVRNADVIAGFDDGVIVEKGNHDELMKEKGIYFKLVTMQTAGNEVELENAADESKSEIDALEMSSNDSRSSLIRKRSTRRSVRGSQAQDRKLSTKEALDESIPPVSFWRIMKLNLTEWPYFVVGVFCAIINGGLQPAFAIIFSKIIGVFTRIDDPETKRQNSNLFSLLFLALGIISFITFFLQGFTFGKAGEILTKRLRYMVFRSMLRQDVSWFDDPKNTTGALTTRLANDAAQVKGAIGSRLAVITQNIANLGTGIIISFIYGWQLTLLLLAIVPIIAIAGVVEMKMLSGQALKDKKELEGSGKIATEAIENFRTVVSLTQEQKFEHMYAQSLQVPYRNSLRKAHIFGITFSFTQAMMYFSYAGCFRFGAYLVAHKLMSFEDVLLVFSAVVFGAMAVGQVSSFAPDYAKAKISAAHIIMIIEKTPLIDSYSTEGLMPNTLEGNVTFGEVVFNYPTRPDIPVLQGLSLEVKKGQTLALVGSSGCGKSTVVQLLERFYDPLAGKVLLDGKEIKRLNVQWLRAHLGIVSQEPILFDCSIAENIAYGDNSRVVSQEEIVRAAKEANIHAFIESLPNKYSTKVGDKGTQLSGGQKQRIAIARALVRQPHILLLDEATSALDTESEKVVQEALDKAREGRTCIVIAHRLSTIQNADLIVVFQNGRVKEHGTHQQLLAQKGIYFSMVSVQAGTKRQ
Protocol: The principle of the test is as follows: Rd123 is a fluorophore and a known P-gp substrate. During incubation, Rd123 enters the cells by simple diffusion, and then Rd123 begins to interact with P-gp, which releases it from the cell. Cells in which Rd123 is present are stained and can be detected by flow cytometry. The more efficiently P-gp works, the less stained cells in the population remain over time.
The experiment used K562/i-S9_Dox cells with P-gp overexpression. Cells (5 × 10^5 per point) were incubated with Rd123 at a concentration of 3.5 μg/mL for 20 min in serum-free RPMI1640 medium. Furthermore, the efficiency of Rd123 entry into cells was assessed. […] Incubation with substances took place for 35 min in 1 mL of serum-free medium. Then, the cells were precipitated, washed with PBS solution, and the % of stained cells in the population were assessed on a flow cytometer.

| Structure (SMILES) | IC50 [1] [nM] | IC50 (K562/i-S9_Dox) [nM] | % Luminous Cells (P-glycoprotein) |
| --- | --- | --- | --- |
| C=C1C2=C(C(=O)N1OC)[C@@H](N1CCCC1)[C@@](C)(O)[C@H](CCCCC)O2 [Compound 1] | 2500 ± 900 | 3100 ± 800 | 73% and 73.4 ± 6.7% |
| C=C1C2=C(C(=O)N1OC)[C@@H](N(C)C)[C@@](C)(O)[C@H](CCCCC)O2 [Compound 2, (2S,3R,4R)-4-(dimethylamino)-3-hydroxy-6-methoxy-3-methyl-7-methylene-2-pentyl-3,4,6,7-tetrahydropyrano[2,3-c]pyrrol-5(2H)-one] | 1900 ± 500 | 2400 ± 900 | 82% and 82.4 ± 3.0% |
| C=C1C2=C(C(=O)N1OC)[C@@H](N(CC)CCO)[C@@](C)(O)[C@H](CCCCC)O2 [Compound 9, (2S,3R,4R)-4-[ethyl(2-hydroxyethyl)amino]-3-hydroxy-6-methoxy-3-methyl-7-methylene-2-pentyl-3,4,6,7-tetrahydropyrano[2,3-c]pyrrol-5(2H)-one] | 4100 ± 1100 | 3300 ± 600 | 80% and 80.2 ± 6.2% |
